Test: mn = molality of the nth substance listed, in mol/kg
Settings: 298.15 K, 101 kPa, Liquid; for viscosity: Capillary tube (Ostwald / Ubbelohde) method; for speed of sound: Sing-around technique in a fixed-path interferometer; for mass density: Vibrating tube method

CCCCCCCC[n+]1ccn(C)c1.F[B-](F)(F)F [1-methyl-3-octylimidazolium tetrafluoroborate] + O
Settings	mass density [kg/m3]	speed of sound [m/s]	viscosity [mPa·s]
m1 = 0.00225	–	–	0.8929
m1 = 0.0045	997.19	1497.4	–
m1 = 0.0058	997.23	1497.5	–
m1 = 0.0077	997.29	1497.8	–
m1 = 0.00773	–	–	0.8974
m1 = 0.01093	–	–	0.8997
m1 = 0.0112	997.4	1498.3	–
m1 = 0.01518	–	–	0.9029
m1 = 0.017	997.58	1499	–
m1 = 0.01948	–	–	0.9059
m1 = 0.0196	997.66	1499.4	–
m1 = 0.0235	997.78	1499.9	–
m1 = 0.02476	–	–	0.9094
m1 = 0.0264	997.87	1500.3	–
m1 = 0.0311	–	–	0.914
m1 = 0.0369	998.19	1501.7	–
m1 = 0.03923	–	–	0.9201
m1 = 0.0428	998.37	1502.5	–
m1 = 0.0454	998.45	1502.9	–
m1 = 0.04705	–	–	0.9255

CCCCCCCC[n+]1ccn(C)c1.[Cl-] [1-methyl-3-octylimidazolium chloride] + O
Settings	mass density [kg/m3]	speed of sound [m/s]	viscosity [mPa·s]
m1 = 0.0074	–	–	0.8986
m1 = 0.0127	997.14	1499.2	–
m1 = 0.01484	–	–	0.9052
m1 = 0.017	997.17	1500	–
m1 = 0.02425	–	–	0.9131
m1 = 0.0272	997.24	1502	–
m1 = 0.039	997.32	1504.4	–
m1 = 0.04255	–	–	0.9281
m1 = 0.0555	997.43	1507.5	–
m1 = 0.05607	–	–	0.9387
m1 = 0.06607	–	–	0.946
m1 = 0.0693	997.52	1510.1	–
m1 = 0.07893	–	–	0.956
m1 = 0.0892	997.65	1513.8	–
m1 = 0.0928	–	–	0.968
m1 = 0.1002	997.72	1515.7	–
m1 = 0.1061	–	–	0.9779
m1 = 0.1179	997.83	1518.5	–
m1 = 0.1353	997.94	1521.5	–
m1 = 0.1679	998.14	1526.8	–
m1 = 0.183	998.23	1529.5	–
m1 = 0.1948	998.3	1531.3	–

CCCCn1cc[n+](C)c1.[Cl-] [1-butyl-3-methylimidazolium chloride] + O
Settings	mass density [kg/m3]	speed of sound [m/s]	viscosity [mPa·s]
m1 = 0.0123	997.21	1498.3	–
m1 = 0.01554	–	–	0.8981
m1 = 0.01952	–	–	0.9005
m1 = 0.02	997.31	1499.3	–
m1 = 0.0252	–	–	0.9024
m1 = 0.0279	997.41	1500.3	–
m1 = 0.0349	997.5	1501.2	–
m1 = 0.03495	–	–	0.9062
m1 = 0.0404	997.57	1501.9	–
m1 = 0.04454	–	–	0.9101
m1 = 0.05402	–	–	0.9143
m1 = 0.0624	997.85	1504.8	–
m1 = 0.06772	–	–	0.9197
m1 = 0.08128	–	–	0.9258
m1 = 0.09508	–	–	0.9323
m1 = 0.107	998.41	1510.6	–
m1 = 0.1132	–	–	0.9412
m1 = 0.1175	998.54	1512	–
m1 = 0.1296	998.69	1513.5	–
m1 = 0.1521	998.97	1516.5	–
m1 = 0.1677	999.16	1518.6	–
m1 = 0.1852	999.38	1520.9	–
m1 = 0.2113	999.7	1524.3	–
m1 = 0.236	1000.01	1527.6	–
m1 = 0.2591	1000.29	1530.7	–
m1 = 0.2718	1000.45	1532.4	–

CCCCn1cc[n+](C)c1.COS(=O)(=O)[O-] [1-butyl-3-methylimidazolium methyl sulfate] + O
Settings	mass density [kg/m3]	speed of sound [m/s]	viscosity [mPa·s]
m1 = 0.00791	–	–	0.8954
m1 = 0.0096	997.41	1498	–
m1 = 0.01626	–	–	0.8999
m1 = 0.02449	–	–	0.9046
m1 = 0.0289	998.13	1500.5	–
m1 = 0.0329	–	–	0.9095
m1 = 0.0411	998.59	1502	–
m1 = 0.04142	–	–	0.9133
m1 = 0.0522	–	–	0.9182
m1 = 0.0584	999.23	1504.2	–
m1 = 0.06083	–	–	0.9236
m1 = 0.07206	–	–	0.9287
m1 = 0.0828	1000.11	1507.2	–
m1 = 0.08297	–	–	0.9354
m1 = 0.09627	–	–	0.9428
m1 = 0.1188	1001.49	1512	–
m1 = 0.1481	1002.58	1515.7	–
m1 = 0.1736	1003.51	1519	–
m1 = 0.2021	1004.58	1522.6	–
m1 = 0.2252	1005.44	1525.6	–

CCCCCCCCOS(=O)(=O)[O-].CCCCn1cc[n+](C)c1 [1-butyl-3-methylimidazolium octyl sulfate] + O
Settings	mass density [kg/m3]	speed of sound [m/s]	viscosity [mPa·s]
m1 = 0.008	997.23	1498.5	–
m1 = 0.00921	–	–	0.9054
m1 = 0.0148	997.38	1500.1	–
m1 = 0.01899	–	–	0.9173
m1 = 0.0215	997.53	1501.6	–
m1 = 0.02803	–	–	0.9278
m1 = 0.0301	997.72	1503.6	–
m1 = 0.035	997.83	1504.7	–
m1 = 0.03646	–	–	0.9388
m1 = 0.0423	997.99	1506.2	–
m1 = 0.04596	–	–	0.9507
m1 = 0.0492	998.14	1506.9	–
m1 = 0.05551	–	–	0.9615
m1 = 0.06482	–	–	0.9748
m1 = 0.0668	998.52	1507.5	–
m1 = 0.07522	–	–	0.9873
m1 = 0.08499	–	–	0.9986
m1 = 0.0888	998.99	1508.1	–
m1 = 0.0981	–	–	1.015
m1 = 0.1542	1000.35	1509.5	–
m1 = 0.2466	1002.19	1511.6	–
m1 = 0.3369	1003.92	1513.9	–

CCCCn1cc[n+](C)c1.F[B-](F)(F)F [1-butyl-3-methylimidazolium tetrafluoroborate] + O
Settings	mass density [kg/m3]	speed of sound [m/s]	viscosity [mPa·s]
m1 = 0.00382	–	–	0.8922
m1 = 0.01067	–	–	0.8943
m1 = 0.0151	997.61	1497.7	–
m1 = 0.02196	–	–	0.8986
m1 = 0.03489	–	–	0.9024
m1 = 0.0355	998.36	1499.1	–
m1 = 0.04696	–	–	0.9053
m1 = 0.05635	–	–	0.9095
m1 = 0.0662	–	–	0.9133
m1 = 0.07543	–	–	0.9162
m1 = 0.0764	999.85	1502	–
m1 = 0.08767	–	–	0.9198
m1 = 0.09802	–	–	0.9239
m1 = 0.1052	1000.89	1504	–
m1 = 0.1284	1001.72	1505.5	–
m1 = 0.1538	1002.64	1507.3	–
m1 = 0.1803	1003.58	1509.1	–
m1 = 0.2059	1004.49	1510.9	–
m1 = 0.2269	1005.22	1512.3	–
m1 = 0.2505	1006.06	1513.9	–

From the NIST ThermoML archive (doi:10.1016/j.jct.2011.01.013)
